# What was measured:
# [1] = test system: CFTR gene locus in HEK293 T cells; test: TIDE analysis of DSB repair at CFTR gene locus; type: cell-based
# Method: The effect of Nu7441 treatment on HDR was also evaluated at the CFTR gene locus in HEK293 T cells. To do so cells were electroporated with RNP comprising Cas9 and a gRNA targeting the CFTR gene locus (SEQ ID NO: 18; sgRNA target sequence identified by SEQ ID NO: 19). 2×10^5 cells were edited with 1 μM Cas9 and 1.5 μM gRNA. The cells were transfected with a ssODN donor (SEQ ID NO: 42). Cells were edited with 100 μM ssODN. The ssODN contains homology arms spanning both sides of the DSB induced by the Cas9-guide and is designed to include 3 additional base pairs (GCA) into the CFTR gene to aid detection of HDR. Cells were also treated with 5 μM Nu7441. Gene correction was assessed by TIDE analysis. TIDE analysis uses a pair of PCR reactions and standard capillary sequencing runs to identify mutations induced at the site of a DSB (see e.g., Brinkman (2014) Nucleic Acids Res 42:e168). The type of mutation induced at the DSB was indicative of the pathway used to repair the DSB. Formation of an indel comprising either an insertion or a deletion of bases was considered due to NHEJ repair; a deletion of 2-3 base pairs was considered due to MMEJ repair; while an insertion of 3 base pairs was considered due to HDR repair. Shown in FIGS. 4A-4B are mutations introduced at the DSB for cells treated with Nu7441 (FIG. 4B) compared to a DMSO negative control (FIG. 4A). […] This reduction in NHEJ repair in the presence of Nu7441 was evaluated with an additional ssODN donor (SEQ ID NO: 41).
# [2] = test system: AAVS1 locus in hTERT RPE-1 cells; test: HDR insertion of AAV GFP donor at AAVS1 locus in hTERT RPE-1 cells; type: cell-based, human; settings: mRNA encoding i53; AAV 25,000 MOI; FIG. 7
# Method: RPE1 cells were lipofected with RNP comprised of Cas9 protein and gRNA targeting the AAVS1 locus (target sequence shown in SEQ ID NO: 3; spacer sequence shown in SEQ ID NO: 4). Cells were edited with 1 g Cas9 and 1 g gRNA. Cells were infected with AAV containing homology donor DNA encoding GFP (DJ serotype) as well as mRNA encoding i53 (mRNA ORF shown in SEQ ID NO: 69). […] HDR efficiency was determined by measuring the level of GFP fluorescence in the cells following gene-editing.
# [3] = test system: HBB gene in PBMCs from a human donor with sickle cell disease; test: HDR correction and INDELs in patient-derived PBMCs, NGS; type: cell-based
# Method: (§1) It was further evaluated if editing of patient-derived PBMCs in the presence of i53 would yield high levels of correction of the HBB gene. […] The PBMCs were expanded in StemSpan SFEM II (1×)+StemSpan CC100 (1×)+Dexamethasone […]+hEPO 2IU/mL at 37° C. under normoxic conditions (20% O2 concentration). The cells were edited following five days of in vitro culture. […] On day 8, the cells were transferred to Phase 1 media, and differentiation to erythrocytes was performed through day 18 as described above. Efficiency of HDR at the HBB gene locus was evaluated on day 12 using the NGS assay described in Example 4. Also evaluated was the frequency of INDELs at the R02 cut-site as measured by NGS.
# [4] = test system: PBMCs from a human donor with sickle cell disease; test: Hemoglobin expression by HPLC in edited patient-derived PBMCs; type: cell-based; settings: compared to mock EP control cells, FIG. 34
# Method: as §1
# Hemoglobin expression was measured by HPLC analysis for edited PBMCs as described above.
# [5] = test system: HBB gene locus in CD34-expressing LT-HSPCs; test: HDR efficiency at HBB gene with R02 RNP+AAV.307 and DNA-PK inhibitors, NGS; type: cell-based, human; settings: 1 μg i53 mRNA; R02 RNP+AAV.307
# Method: Editing was performed as described above. However, the cells were electroporated with AAV.307 administered 1 hour prior to electroporation at a dose of 10,000 MOI. The cells were electroporated with compound 296 at a concentration ranging from 0.005 μM to 10 μM, with compound 984 at a concentration ranging from 0.005 μM to […], or with 1 μg i53 mRNA. Negative control cells were electroporated with RNP+AAV only or RNP only.
# Edited cells were evaluated for viability as described above, and for incorporation of gene-edits at 2 days post-electroporation. […] The frequency of INDELs induced at the R02 cut site was also evaluated by NGS analysis.
# [6] = Nu7441, either ssODN donor (SEQ ID NO: 41 or 42), FIG. 5
Molecule,"HDR repair (+3 base pair insertion) ([1]; 5 μM Nu7441, ssODN SEQ ID NO: 42, FIGS. 4A-4B)","indel formation (+1, 0, or −1 base pair) ([1]; 5 μM Nu7441, ssODN SEQ ID NO: 42, vs DMSO negative control, FIGS. 4A-4B)","HDR repair [1, 6]","indel formation due to NHEJ repair [1, 6]",HDR efficiency over AAV alone [2],"frequency of INDELs ([3]; compared to control cells, FIG. 33B)","frequency of correction of the HBB gene by HDR repair ([3]; day 12, FIG. 33A)",expression of HbA [4],expression of HbS [4],level of HDR repair [5]
O=c1cc(N2CCOCC2)oc2c(-c3cccc4c3sc3ccccc34)cccc12 [Nu7441],much higher levels of HDR repair,dramatically reduced,increase in HDR repair,decreased levels of indel formation,,,,,,
"i53: polypeptide inhibitor of 53BP1 (SEQ ID NO: 70), delivered as mRNA (ORF SEQ ID NO: 69)",,,,,increase in HDR efficiency,reduced,approximately 60%,increased expression of HbA,significant reduction in expression of HbS,59%

# From patent publication US12653860B2, “Compositions and methods for editing beta-globin for treatment of hemaglobinopathies” (Vertex Pharmaceuticals Incorporated, priority 2019, dated 2026)
